What was measured:
M2 muscarinic receptor = target: T1, M2 muscarinic receptor (Rattus norvegicus, UniProt P10980); assay: Radioligand binding assay, [3H]-N-methylscopolamine, rat heart membranes; settings: [3H]-NMS binding, read-out: Receptor Binding Assay pKi M2 (converted)
T1 construct: Submandibular glands and heart were isolated and placed in ice cold homogenising buffer; from tissue; host or cells: rat heart membrane homogenate
T1 sequence (P10980 1-466): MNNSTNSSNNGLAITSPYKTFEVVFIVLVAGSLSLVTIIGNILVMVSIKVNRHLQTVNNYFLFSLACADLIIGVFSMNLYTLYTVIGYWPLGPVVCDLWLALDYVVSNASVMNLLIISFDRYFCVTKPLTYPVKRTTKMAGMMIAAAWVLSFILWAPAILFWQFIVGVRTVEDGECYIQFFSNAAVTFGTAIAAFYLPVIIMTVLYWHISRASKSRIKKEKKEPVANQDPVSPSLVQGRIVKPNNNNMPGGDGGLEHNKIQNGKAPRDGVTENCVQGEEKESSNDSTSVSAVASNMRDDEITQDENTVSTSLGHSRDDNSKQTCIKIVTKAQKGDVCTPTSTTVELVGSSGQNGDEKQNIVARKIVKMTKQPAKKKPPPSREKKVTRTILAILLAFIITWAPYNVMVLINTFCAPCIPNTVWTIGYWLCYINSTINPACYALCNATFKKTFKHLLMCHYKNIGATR
Method: (§1) Membrane preparation: Submandibular glands and heart were isolated and placed in ice cold homogenising buffer (HEPES 20 mM, 10 mM EDTA, pH 7.4) immediately after sacrifice. The tissues were homogenised in 10 volumes of homogenising buffer and the homogenate was filtered through two layers of wet gauze and filtrate was centrifuged at 500 g for 10 min. The supernatant was subsequently centrifuged at 40,000 g for 20 min. The pellet thus obtained was resuspended in same volume of assay buffer (HEPES 20 mM, EDTA 5 mM, pH 7.4) and were stored at −70° C. until the time of assay.
(§2) Ligand binding assay The compounds were dissolved and diluted in DMSO. The membrane homogenates (150-250 μg protein) were incubated in 250 μl of assay buffer (HEPES 20 mM, pH 7.4) at 24-25° C. for 3 hours. Non-specific binding was determined in the presence of 1 μM atropine. The incubation was terminated by vacuum filtration over GF/B fiber filters (Wallac). The filters were then washed with ice cold 50 mM Tris HCl buffer (pH 7.4). The filter mats were dried and bound radioactivity retained on filters was counted. The IC50 & Kd were estimated by using the non-linear curve fitting program using G Pad Prism software.

M3 muscarinic receptor = target: T2, M3 muscarinic receptor (Rattus norvegicus, UniProt P08483); assay: Radioligand binding assay, [3H]-N-methylscopolamine, rat submandibular gland membranes; settings: [3H]-NMS binding, read-out: Receptor Binding Assay pKi M3 (converted)
T2 construct: Submandibular glands and heart were isolated and placed in ice cold homogenising buffer; from tissue; host or cells: rat submandibular gland membrane homogenate
Method: as §1, §2

T2 sequence (P08483 whole entry): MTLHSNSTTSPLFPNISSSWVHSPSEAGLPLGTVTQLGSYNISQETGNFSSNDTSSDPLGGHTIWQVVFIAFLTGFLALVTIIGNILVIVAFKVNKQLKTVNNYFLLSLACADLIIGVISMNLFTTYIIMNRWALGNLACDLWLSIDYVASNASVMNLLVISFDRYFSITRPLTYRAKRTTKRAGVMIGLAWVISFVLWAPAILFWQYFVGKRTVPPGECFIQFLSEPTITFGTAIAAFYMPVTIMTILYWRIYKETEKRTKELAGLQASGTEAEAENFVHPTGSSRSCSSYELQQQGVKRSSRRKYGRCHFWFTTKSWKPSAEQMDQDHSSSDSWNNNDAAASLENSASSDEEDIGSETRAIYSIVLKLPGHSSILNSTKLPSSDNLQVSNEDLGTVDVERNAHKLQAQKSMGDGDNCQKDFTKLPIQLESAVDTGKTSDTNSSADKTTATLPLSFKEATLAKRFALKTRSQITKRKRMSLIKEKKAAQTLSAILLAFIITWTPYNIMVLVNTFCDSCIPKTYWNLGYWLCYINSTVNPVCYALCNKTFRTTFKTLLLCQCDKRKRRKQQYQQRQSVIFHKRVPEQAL

O=C(NC12CC1CN(Cc1ccccc1)C2)C(CO)c1ccccc1 (stereo not drawn) [Compound No. 4, (1α,5α)-N-[3-benzyl-3-azabicyclo[3.1.0]hex-1-yl]-2-hydroxymethyl-2-phenylacetamide]
Ki (M2 muscarinic receptor): 15.8 µM | Ki (M3 muscarinic receptor): 7.94 µM
